Laboratory results as given in ChEMBL document CHEMBL1201862, “PubChem BioAssay data set” (2004).
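Compound exposure: 48 hours, 5 concentrations, 96-well plates. Here, GI50 denotes the concentration required for 50% inhibition of growth.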 Calls of active or inactive are those of the source. Cut-off read from the data, not from the text of the source: active = GI50 up to about 1.1 µM and inactive = higher.

Columns and labels:
Assay in all cases: NCI tumour cell line growth inhibition, 48 h
[1] = tested on: A549
[2] = tested on: Malme-3M
[3] = tested on: HCC 2998
[4] = tested on: RPMI-8226
[5] = tested on: TK-10
[6] = tested on: MDA-MB-231
[7] = tested on: IGROV-1
[8] = tested on: UO-31
[9] = tested on: NCI-H23
[10] = tested on: CAKI-1
[11] = tested on: SNB-19
[12] = tested on: CCRF-CEM
[13] = tested on: RXF 393
[14] = tested on: M14
[15] = tested on: SR
[16] = tested on: HCT-116
[17] = tested on: MOLT-4
[18] = tested on: SNB-75
[19] = tested on: 786-0
[20] = tested on: SF-539
[21] = tested on: MDA-N
[22] = tested on: T47D
[23] = tested on: NCI-H226
[24] = tested on: OVCAR-3
[25] = tested on: MDA-MB-435
[26] = tested on: NCI/ADR-RES
[27] = tested on: Hs-578T
[28] = tested on: HOP-62
[29] = tested on: SF-295
[30] = tested on: MCF7
[31] = tested on: U-251
[32] = tested on: HOP-92
[33] = tested on: SK-MEL-5
[34] = tested on: OVCAR-5
[35] = tested on: HT-29
[36] = tested on: NCI-H522
[37] = tested on: SK-MEL-28
[38] = tested on: DU-145
[39] = tested on: COLO 205
[40] = tested on: SF-268
[41] = tested on: SW-620
[42] = tested on: UACC-257
[43] = tested on: ACHN
[44] = tested on: NCI-H460
[45] = tested on: HL-60
[46] = tested on: OVCAR-8
[47] = tested on: SN12C
[48] = tested on: SK-MEL-2
[49] = tested on: LOX IMVI
[50] = tested on: A498
[51] = tested on: KM12
[52] = tested on: UACC-62
[53] = tested on: K562
[54] = tested on: EKVX
[55] = tested on: HCT-15
[56] = tested on: SK-OV-3
[57] = tested on: OVCAR-4
[58] = tested on: PC-3
[59] = tested on: BT-549
[60] = tested on: DMS-273

Nc1nc(Cl)c(N)c(NCC2(CO)CC(O)C2)n1 (centres undefined)
GI50 [1]: > 100 µM (inactive) | GI50 [2]: > 100 µM (inactive) | GI50 [3]: 46.3 µM (inactive) | GI50 [4]: > 100 µM (inactive) | GI50 [5]: > 100 µM (inactive) | GI50 [6]: > 100 µM (inactive) | GI50 [7]: > 100 µM (inactive) | GI50 [8]: > 100 µM (inactive) | GI50 [9]: > 100 µM (inactive) | GI50 [10]: > 100 µM (inactive) | GI50 [11]: > 100 µM (inactive) | GI50 [12]: > 100 µM (inactive) | GI50 [13]: > 100 µM (inactive) | GI50 [14]: > 100 µM (inactive) | GI50 [15]: > 100 µM (inactive) | GI50 [16]: > 100 µM (inactive) | GI50 [17]: > 100 µM (inactive) | GI50 [18]: > 100 µM (inactive) | GI50 [19]: > 100 µM (inactive) | GI50 [20]: > 100 µM (inactive) | GI50 [21]: > 100 µM (inactive) | GI50 [22]: > 100 µM (inactive) | GI50 [23]: > 100 µM (inactive) | GI50 [24]: > 100 µM (inactive) | GI50 [25]: > 100 µM (inactive) | GI50 [26]: > 100 µM (inactive) | GI50 [27]: > 100 µM (inactive) | GI50 [28]: > 100 µM (inactive) | GI50 [29]: > 100 µM (inactive) | GI50 [30]: > 100 µM (inactive) | GI50 [31]: > 100 µM (inactive) | GI50 [32]: > 100 µM (inactive) | GI50 [33]: > 100 µM (inactive) | GI50 [34]: > 100 µM (inactive) | GI50 [35]: > 100 µM (inactive) | GI50 [36]: > 100 µM (inactive) | GI50 [37]: > 100 µM (inactive) | GI50 [38]: > 100 µM (inactive) | GI50 [39]: > 100 µM (inactive) | GI50 [40]: > 100 µM (inactive) | GI50 [41]: > 100 µM (inactive) | GI50 [42]: > 100 µM (inactive) | GI50 [43]: > 100 µM (inactive) | GI50 [44]: > 100 µM (inactive) | GI50 [45]: > 100 µM (inactive) | GI50 [46]: > 100 µM (inactive) | GI50 [47]: > 100 µM (inactive) | GI50 [48]: > 100 µM (inactive) | GI50 [49]: > 100 µM (inactive) | GI50 [50]: 67.5 µM (inactive) | GI50 [51]: > 100 µM (inactive) | GI50 [52]: > 100 µM (inactive) | GI50 [53]: > 100 µM (inactive) | GI50 [54]: > 100 µM (inactive) | GI50 [55]: > 100 µM | GI50 [56]: > 100 µM (inactive) | GI50 [57]: > 100 µM (inactive) | GI50 [58]: > 100 µM (inactive) | GI50 [59]: > 100 µM (inactive)

NC(=O)c1cn(C2OC(CO)C(O)C2O)c2ncnc(N)c12 (centres undefined)
GI50 [8]: 0.07 µM (active) | GI50 [30]: 0.07 µM (active) | GI50 [31]: 0.07 µM (active) | GI50 [50]: 0.0724 µM (active) | GI50 [60]: 0.0213 µM (active) | GI50 [54]: 0.0453 µM (active)

CCOP(=O)(OCC)C(Nc1cccc(F)c1)c1ccc(N(C)C)cc1 (centres undefined)
GI50 [1]: 52.7 µM (inactive) | GI50 [2]: > 100 µM (inactive) | GI50 [3]: 64 µM (inactive) | GI50 [4]: 67.6 µM (inactive) | GI50 [5]: > 100 µM (inactive) | GI50 [6]: 78.2 µM (inactive) | GI50 [7]: > 100 µM (inactive) | GI50 [8]: > 100 µM (inactive) | GI50 [9]: > 100 µM (inactive) | GI50 [10]: > 100 µM (inactive) | GI50 [11]: > 100 µM (inactive) | GI50 [12]: 90.4 µM (inactive) | GI50 [13]: > 100 µM (inactive) | GI50 [14]: 74.3 µM (inactive) | GI50 [15]: > 100 µM (inactive) | GI50 [16]: 48.5 µM (inactive) | GI50 [17]: 40.4 µM (inactive) | GI50 [18]: > 100 µM (inactive) | GI50 [19]: > 10 µM (inactive) | GI50 [20]: > 100 µM (inactive) | GI50 [21]: > 100 µM (inactive) | GI50 [22]: 34.8 µM (inactive) | GI50 [23]: > 100 µM (inactive) | GI50 [24]: > 100 µM (inactive) | GI50 [25]: > 100 µM (inactive) | GI50 [26]: 81.8 µM (inactive) | GI50 [27]: > 100 µM (inactive) | GI50 [28]: > 100 µM (inactive) | GI50 [29]: 57 µM (inactive) | GI50 [30]: > 100 µM (inactive) | GI50 [31]: > 100 µM (inactive) | GI50 [32]: 18 µM (inactive) | GI50 [33]: 71 µM (inactive) | GI50 [34]: > 100 µM (inactive) | GI50 [35]: 59.2 µM (inactive) | GI50 [36]: 75.5 µM (inactive) | GI50 [37]: > 100 µM (inactive) | GI50 [38]: > 100 µM (inactive) | GI50 [39]: 97.1 µM (inactive) | GI50 [40]: > 100 µM (inactive) | GI50 [41]: > 100 µM (inactive) | GI50 [42]: 76.9 µM (inactive) | GI50 [43]: > 100 µM (inactive) | GI50 [44]: 63 µM (inactive) | GI50 [45]: 45.7 µM (inactive) | GI50 [46]: > 100 µM (inactive) | GI50 [47]: > 100 µM (inactive) | GI50 [48]: > 100 µM (inactive) | GI50 [49]: 70.5 µM (inactive) | GI50 [50]: > 100 µM (inactive) | GI50 [51]: > 100 µM (inactive) | GI50 [52]: 50.4 µM (inactive) | GI50 [53]: 49.1 µM (inactive) | GI50 [54]: 99.1 µM (inactive) | GI50 [55]: 78.2 µM | GI50 [56]: > 100 µM (inactive) | GI50 [57]: > 100 µM (inactive) | GI50 [58]: 62.1 µM (inactive) | GI50 [59]: > 100 µM (inactive)
